Reference: patent US20120195978A1, “CAPCNA PEPTIDE THERAPEUTICS FOR CANCER” (Indiana University Research and Technology Corpora, priority 2009, published 2012)
No end group written: not given here.

What was measured:
[1] = tested on: HCC1937 cells lacking BRCA1; assay: MTT assay, caPCNA peptides alone and in combination with cisplatin; assay type: cell-based, human
Experimental: Breast cancer cells were obtained from a patient harboring a hereditary mutation in BRCA1, a major component of DNA double strand break repair (HCC1937 cells). HCC1937 is a near-tetraploid cell line from mammary gland whose cells are homozygous for a frameshift mutation in BRCA1. The cell line is available at ATCC.
MTT [3-(4,5-dimethylthiazol-2-yl)-2,5-diphenyltetrazolium bromide] assays were conducted with caPCNA peptides at a variety of time points both alone and in combination with a DNA damaging agent e.g., cisplatin in HCC1937 and HCC1937+wild-type BRCA1 cells. The MTT assay is based on the ability of a mitochondrial dehydrogenase enzyme from viable cells to cleave the tetrazolium rings of the pale yellow MTT dye and form dark blue formazan crystals. These formazan crystals are largely impermeable to cell membranes and thus accumulate within healthy cells. Solubilization of the cells by the addition of a detergent results in the liberation and solubilization of the crystals. The number of proliferating cells is directly proportional to the level of formazan product created. The color can then be quantified using a simple colorimetric assay. The results are read on a multiwall scanning spectrophotometer (ELISA reader). The peptides used in these experiments including caPCNA peptide, Q131A ([…] (SEQ ID NO: 5)), and P129A ([…] (SEQ ID NO: 3)) were ordered and obtained from Anaspec (Fremont, Calif.). ca PCNA peptide was dissolved in sterile 1×PBS solution to create a 1.5 mM stock concentration. caPCNA peptides with alanine substitutions (e.g., P129A (SEQ ID NO: 3) and Q131A (SEQ ID NO: 5)) were dissolved in sterile 1×PBS solution to create 1.0 mM stock solutions.
MTT assays: The efficacy of caPCNA peptides (caPeptides) were tested using the MTT assays: HCC1937 and HCC137+wildtype BRCA1 cells were grown in DMEM 1× (supplemented with 10% fetal bovine serum and 5% penicillin/streptomycin) and were plated at a densities of 5.5×10^3 or 7×10^3, respectively, in 96 well plates (100 μL total volume per well) and allowed to attach overnight in a 37° C. incubator (5% CO2). Then, caPCNA peptide stock solution was diluted to final working concentrations in DMEM 1× (10% fetal bovine serum and 5% penicillin/streptomycin) of 150 μM, 100 μM, 75 μM, 50 and 25 μM. Media was removed from cells and replaced with media containing caPCNA peptide at various concentrations (200 μL total volume per well). Cells were cultured with caPCNA peptide-containing media for 24, 48 or 72 hours. At the appropriate treatment timepoint, 20 μL MTT (5 mg/mL in PBS) reagent was added to each well and plates were incubated for an additional 4 hours. Media/dye solution was then aspirated and 200 μL DMSO was added to each well. Plates were rocked at room temperature for five minutes to dissolve crystals and transferred to an ELISA plate reader. Absorbance was measured at 550 nm. The extent to which caPeptides inhibited cell proliferation was calculated as a percentage of the absorbance in each well containing caPCNA peptide relative to wells containing no caPCNA peptide (negative control) for both HCC1937 and HCC1937+wild-type BRCA1 cells.
Efficacy of P129A (SEQ ID NO: 3) and Q131A (SEQ ID NO: 5) caPCNA peptides: Cells were cultured and plated in 96 well plates as described herein. P129A (SEQ ID NO: 3) or Q131A (SEQ ID NO: 5) stock solution was diluted to final working concentrations in DMEM 1× (10% fetal bovine serum and 5% penicillin/streptomycin) of 100 μM, 75 μM, 50 μM, 25 μM, and 12.5 μM. Media was removed from cells and replaced with media containing P129A (SEQ ID NO: 3) or Q131A (SEQ ID NO: 5) caPCNA peptides at various concentrations (200 μL total volume per well) and cells were cultured with peptide-containing media for 24 hours. After 24 hours, the MTT assay was completed and data analysis was performed as described herein. […]

[2] = tested on: HCC1937+wild-type BRCA1 cells; assay: as above; assay type: cell-based, human
Experimental: As a genetically matched control, wild-type BRCA1 has been transduced into HCC1937 cells (referred to as HCC1937+wild-type BRCA1). HCC1937+wild-type BRCA1 cells were selected for maintenance of the vector using 1 μg/mL puromycin. All cells in these assays were used at passage numbers <25.
MTT [3-(4,5-dimethylthiazol-2-yl)-2,5-diphenyltetrazolium bromide] assays were conducted with caPCNA peptides at a variety of time points both alone and in combination with a DNA damaging agent e.g., cisplatin in HCC1937 and HCC1937+wild-type BRCA1 cells. […] The color can then be quantified using a simple colorimetric assay. The results are read on a multiwall scanning spectrophotometer (ELISA reader). […]
MTT assays: The efficacy of caPCNA peptides (caPeptides) were tested using the MTT assays: HCC1937 and HCC137+wildtype BRCA1 cells were grown in DMEM 1× (supplemented with 10% fetal bovine serum and 5% penicillin/streptomycin) and were plated at a densities of 5.5×10^3 or 7×10^3, respectively, in 96 well plates (100 μL total volume per well) and allowed to attach overnight in a 37° C. incubator (5% CO2). […] Plates were rocked at room temperature for five minutes to dissolve crystals and transferred to an ELISA plate reader. Absorbance was measured at 550 nm. […]

[3] = tested on: U937 cells; assay: Cytotoxic effects of R9-linked caPCNA peptides, % cell death by flow cytometry; assay type: cell-based; settings: for Effect of alanine substitution on cytotoxic action of the peptide (in words): compared with unsubstituted R9-caPCNA peptide
Experimental: R9 refers to a cell penetrating peptide that includes a polyarginine sequence e.g., nine contiguous arginine residues. Alanine substitutions in the caPCNA peptide affect its cytotoxic action. U937 cells were treated with each alanine substituted peptide and the scrambled peptide and % cell death evaluated by flow cytometry.

[4] = tested on: MCF 10A (non-malignant); assay: Preferential killing of cancer cells by R9-caPeptide; assay type: cell-based
[5] = tested on: MCF 7 (breast cancer); assay: as above; assay type: cell-based
[6] = tested on: HCC1937 cells; assay: Clonogenic survival assay after caPCNA peptide treatment; assay type: cell-based, human; settings: 100 μM peptide for 48 hours, 13 days growth; effect more pronounced than in cells with wild-type BRCA1
Experimental: (§1) Clonogeizic survival assay: Clonogenic survival after caPCNA peptide treatment: The purpose of this experiment was to determine the effects of high caPCNA peptide treatment (100 μM caPCNA peptide for 48 hours) on ability of cells plated at low density to proliferate and form colonies. HCC1937 and HCC1937+wild-type BRCA1 cells were plated in 6-well plates and allowed to attach overnight at 37° C.
(§2) Then, media was removed and replaced with 100 μM caPCNA peptide in DMEM 1× (10% fetal bovine serum and 5% penicillin/streptomycin). Untreated cells were used as a negative control. Plates were incubated with media containing peptide for 48 hours. Live cells were then collected, counted, plated at low density ([…] cells in 10 cm2 dishes) and allowed to grow in DMEM 1× (20% fetal bovine serum, 5% penicillin/streptomycin) for 13 days. After 13-day incubation, media was removed and plates were washed twice with 1×PBS. Cells were fixed with 70% EtOH for 10 minutes, dried, and stained for 1 hour with 20% Giemsa diluted in MilliQ water. Dye was removed; plates were rinsed, dried overnight and photographed. Images shown are representative of results obtained for treated and untreated HCC1937 and HCC1937+wild-type BRCA1 cells.

[7] = tested on: HCC1937+wild-type BRCA1 cells; assay: as above; assay type: cell-based, human; settings: 100 μM peptide for 48 hours, 13 days growth
Experimental: as §1, §2

[8] = HCC1937 and HCC1937+wild-type BRCA1 cells, 24 hours

With N.N.[Cl][Pt][Cl] [cisplatin, reference compound] the IC50 ([1]; HCC1937 cells lacking BRCA1, cisplatin alone, FIG. 4A, read-out: IC50 value for cisplatin alone (growth inhibition)) was about 155 µM, the “Sensitivity of cells to cisplatin (MTT)” value ([1]; HCC1937 cells, FIG. 3A) was “relatively resistant” and the “Sensitivity of cells to cisplatin (MTT)” value ([2]; HCC1937+wild-type BRCA1 cells, FIG. 3B) was “relatively resistant”. It also gave an IC50 ([2]; HCC1937 cells with BRCA1, cisplatin alone, FIG. 4B, read-out: IC50 value for cisplatin alone (growth inhibition)) of over 200 µM.
In the case of “A1-sub. Peptide: R9-linked caPCNA 126-133 peptide with alanine at position 1, L126 (SEQ ID NO: 59) (RRRRRRRRRAGIPEQEY; R9 linked)”, the “Effect of alanine substitution on cytotoxic action of the peptide (in words)” value (“Effect of alanine substitution” below) [3] is reported as “reduced cytotoxic activity”.
“A2-sub. Peptide: R9-linked caPCNA 126-133 peptide with alanine at position 2, G127 (SEQ ID NO: 60) (RRRRRRRRRLAIPEQEY; R9 linked)” was tested, and the “Effect of alanine substitution” value [3] was “neutral change”.
With “A3-sub. Peptide: R9-linked caPCNA 126-133 peptide with alanine at position 3, I128 (SEQ ID NO: 61) (RRRRRRRRRLGAPEQEY; R9 linked)” the “Effect of alanine substitution” value [3] was “decrease in cytotoxic action but not to the levels of aa126 or aa133”.
For “A4-sub. Peptide: R9-linked caPCNA 126-133 peptide with alanine at position 4, P129 (SEQ ID NO: 62) (RRRRRRRRRLGIAEQEY; R9 linked)”, the “Effect of alanine substitution” value [3] was “increase in cytotoxicity”.
With “A5-sub. Peptide: R9-linked caPCNA 126-133 peptide with alanine at position 5, E130 (SEQ ID NO: 63) (RRRRRRRRRLGIPAQEY; R9 linked)” the “Effect of alanine substitution” value [3] was “neutral change”.
For “A6-sub. Peptide: R9-linked caPCNA 126-133 peptide with alanine at position 6, Q131 (SEQ ID NO: 64) (RRRRRRRRRLGIPEAEY; R9 linked)”, the “Effect of alanine substitution” value [3] was “increase in cytotoxicity”.
“A7-sub. Peptide: R9-linked caPCNA 126-133 peptide with alanine at position 7, E132 (SEQ ID NO: 65) (RRRRRRRRRLGIPEQAY; R9 linked)” was tested, and the “Effect of alanine substitution” value [3] was “increase in cytotoxicity”.
In the case of “A8-sub. Peptide: R9-linked caPCNA 126-133 peptide with alanine at position 8, Y133 (SEQ ID NO: 66) (RRRRRRRRRLGIPEQEA; R9 linked)”, the “Effect of alanine substitution” value [3] is reported as “reduced cytotoxic activity”.
For LGIAEQEY [Peptide P129A], the “Efficacy in comparison to wild-type peptides (MTT)” value [1, 8] was “enhanced efficacy”.
For LGIPEAEY [Peptide Q131A], the “Efficacy in comparison to wild-type peptides (MTT)” value [1, 8] was “enhanced efficacy” and the “Rank of efficacy among the peptides tested (MTT)” value [1, 8] was “appears to be more effective of these peptides tested”.
With “R9-caPeptide: R9 (nonaarginine)-linked caPCNA peptide of Table 6; exact sequence not printed there (LGIPEQEY; also: linked to nonaarginine (R9), site not given here; UniProt P12004 126-133, looked up, fragment) [Peptide R9-caPeptide]” the “% Dead Cells” value [4] was 18.2% and the “% Dead Cells” value [5] was 91.5%.
In the case of “Unsub. Peptide: R9-linked caPCNA 126-133 peptide LGIPEQEY, unsubstituted (SEQ ID NO: 58) (RRRRRRRRRLGIPEQEY; R9 linked)”, the “% cancer cell death” value ([3]; flow cytometry) is reported as 43 ± 10%.
With “caPCNA peptide: caPCNA-derived peptide (aa 126-133) obtained from Anaspec; the figure legends call it R9-caPCNA / R9-PCNA peptide (LGIPEQEY; also: R9 (nonaarginine) linked, site not given here; UniProt P12004 126-133, looked up, fragment)” the “Sensitivity of cells to caPCNA peptides (MTT)” value ([1]; HCC1937 in comparison to HCC1937+wild-type BRCA1 cells, 24, 48 and 72 hour treatment) was “trend of increased sensitivity”, the Colony formation [6] was “inhibits colony formation” and the Colony formation [7] was “inhibits colony formation”.
